Assay results reported in publication PMC10465233, “Lys-urea-Aad, Lys-urea-Cmc and Lys-urea-Cms as potential pharmacophores for the design of PSMA-targeted radioligands to reduce off-target uptake in kidneys and salivary glands” (Theranostics, 2023).
Read-outs that look alike come from different tables or passages of the source.

Columns and labels:
[1] = set-up: method as in earlier work; settings: cited from earlier work
[2] = test system: LNCaP tumor-bearing mice; assay: Radioligand therapy study in LNCaP tumor-bearing mice; format: in vivo, mouse; settings: 37 MBq injected
Procedure: Imaging, biodistribution and radioligand therapy experiments were performed following previously published procedures using male NOD-scid IL2Rg^null (NSG) or NOD.Cg-Rag1^tm1MomIl2rg^tm1Wjl/SzJ (NRG) mice [10]-[12],[14]-[15]. The experiments were conducted according to the guidelines established by the Canadian Council on Animal Care and approved by Animal Ethics Committee of the University of British Columbia. The mice were briefly sedated by inhalation of 2% isoflurane in oxygen, and implanted subcutaneously with 1×10^7 LNCaP cells behind the left shoulder. The mice were imaged or used in biodistribution studies when the tumor grew to 5-8 mm in diameter over a period of 4-5 weeks.
For radiotherapy study, tumor-bearing mice were injected with saline (the control group), [^177Lu]Lu-PSMA-617 (37 MBq) or [^177Lu]-HTK03170 (37, 18.5 and 9.3 MBq) (n = 7-8 per treatment group). Tumor size and body weight were measured twice a week from the date of injection (Day 0) until completion of the study (Day 180). Endpoint criteria were defined as > 20% weight loss, tumor volume > 1000 mm^3, or active ulceration of the tumor.

[3] = test system: LNCaP tumor-bearing mice; settings: cited from earlier work
[4] = vs Glu-containing [^68Ga]Ga-HTK03041, 1 h post-injection

## O=C([O-])CN1CCN(CC(=O)[O-])CCN(CC(=O)NCC2CCC(C(=O)NC(Cc3ccc4ccccc4c3)C(=O)NCCCCC(NC(=O)NC(CCC(=O)O)C(=O)O)C(=O)O)CC2)CCN(CC(=O)[O-])CC1.[177Lu+3] (stereo not drawn) [[^177Lu]Lu-PSMA-617]
[1]; source organ Brain
  Kinetics value: 6.64E-03 MBq-h/MBq
[1]; source organ Heart
  Kinetics value: 3.28E-03 MBq-h/MBq
[1]; source organ Kidneys
  Kinetics value: 8.23E-01 MBq-h/MBq
[1]; source organ Large intestine contents
  Kinetics value: 8.80E-03 MBq-h/MBq
[1]; source organ Liver
  Kinetics value: 6.38E-02 MBq-h/MBq
[1]; source organ Lungs
  Kinetics value: 4.85E-03 MBq-h/MBq
[1]; source organ Pancreas
  Kinetics value: 4.76E-03 MBq-h/MBq
[1]; source organ Remainder of the body
  Kinetics value: 1.68E-01 MBq-h/MBq
[1]; source organ Small intestine
  Kinetics value: 2.63E-02 MBq-h/MBq
[1]; source organ Spleen
  Kinetics value: 1.41E-02 MBq-h/MBq
[1]; source organ Stomach
  Kinetics value: 2.34E-04 MBq-h/MBq
[1]; source organ Testes
  Kinetics value: 4.23E-03 MBq-h/MBq
[1]; source organ Thyroid
  Kinetics value: 4.01E-04 MBq-h/MBq
[1]; source organ Urinary bladder
  Kinetics value: 8.04E-01 MBq-h/MBq
[2]
  Median survival: 63 days

## O=C([O-])CN1CCN(CC(=O)[O-])CCN(CC(=O)NCC2CCC(C(=O)NC(Cc3c4ccccc4cc4ccccc34)C(=O)NCCCCC(NC(=O)NC(CCCC(=O)O)C(=O)O)C(=O)O)CC2)CCN(CC(=O)[O-])CC1.[68Ga+3] (stereo not drawn) [[^68Ga]Ga-HTK03149]
[3]; 1 h post-injection
  Kidney uptake: 4.15±1.46 %ID/g
  Tumor uptake: 19.1±6.37 %ID/g
[3]; 1 h post-injection, listed as [^68Ga]HTK03149
  Tumor uptake: ~ 20 %ID/g
[3]; 1 h post-injection, unreported data in b5
  Salivary gland uptake: 0.22±0.06 %ID/g
[3]; [4]
  Reduction in kidney uptake: > 95%
  Reduction in salivary gland uptake: > 95%
